Measurements reported in PubChem BioAssay (NCI).
Values joined by “and” are separate entries in the source; they are usually repeats but may differ in a detail not shown here. Identical values can stand only once.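 Dose response: 5 concentrations. Exposure: 48 h. Format: 96-well plates. Endpoint: linear interpolation; highest concentration if not reached. Here, GI50 denotes the concentration required for 50% inhibition of growth. TGI denotes the concentration required for complete inhibition of growth.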

What was measured:
Assay in all cases: inhibition of tumour cell growth, NCI panel, 48 h
SF-539 CNS = system: SF-539 CNS
LOX IMVI melanoma = system: LOX IMVI melanoma
UO-31 renal = system: UO-31 renal
NCI-H460 lung = system: NCI-H460 lung
OVCAR-5 ovarian = system: OVCAR-5 ovarian
DU-145 prostate = system: DU-145 prostate
HOP-62 NSCLC = system: HOP-62 NSCLC
UACC-257 melanoma = system: UACC-257 melanoma
PC-3 prostate = system: PC-3 prostate
HS 578T breast = system: HS 578T breast
CAKI-1 renal = system: CAKI-1 renal
HCT-116 colon = system: HCT-116 colon
OVCAR-4 ovarian = system: OVCAR-4 ovarian
HT29 colon = system: HT29 colon
SF-268 CNS = system: SF-268 CNS
SR leukemia = system: SR leukemia
786-0 renal = system: 786-0 renal
SN12C renal = system: SN12C renal
KM12 colon = system: KM12 colon
MDA-MB-231 breast = system: MDA-MB-231 breast
A498 renal = system: A498 renal
SW-620 colon = system: SW-620 colon
BT-549 breast = system: BT-549 breast
CCRF-CEM leukemia = system: CCRF-CEM leukemia
M14 melanoma = system: M14 melanoma
HCT-15 colon = system: HCT-15 colon
COLO 205 colon = system: COLO 205 colon
NCI-H522 lung = system: NCI-H522 lung
A549 NSCLC = system: A549 NSCLC
RPMI-8226 leukemia = system: RPMI-8226 leukemia
MALME-3M melanoma = system: MALME-3M melanoma
UACC-62 melanoma = system: UACC-62 melanoma
NCI/ADR-RES ovarian = system: NCI/ADR-RES ovarian
SK-OV-3 ovarian = system: SK-OV-3 ovarian
NCI-H226 lung = system: NCI-H226 lung
SK-MEL-2 melanoma = system: SK-MEL-2 melanoma
MOLT-4 leukemia = system: MOLT-4 leukemia
SNB-19 CNS = system: SNB-19 CNS
OVCAR-3 ovarian = system: OVCAR-3 ovarian
RXF 393 renal = system: RXF 393 renal
SK-MEL-28 melanoma = system: SK-MEL-28 melanoma
NCI-H23 lung = system: NCI-H23 lung
U251 CNS = system: U251 CNS
HCC-2998 colon = system: HCC-2998 colon
ACHN renal = system: ACHN renal
MCF7 breast = system: MCF7 breast
MDA-MB-435 = system: MDA-MB-435
HOP-92 NSCLC = system: HOP-92 NSCLC
OVCAR-8 ovarian = system: OVCAR-8 ovarian
SK-MEL-5 melanoma = system: SK-MEL-5 melanoma
T-47D breast = system: T-47D breast
IGROV1 ovarian = system: IGROV1 ovarian
K-562 leukemia = system: K-562 leukemia
TK-10 renal = system: TK-10 renal
SF-295 CNS = system: SF-295 CNS
SNB-75 CNS = system: SNB-75 CNS
HL-60(TB) leukemia = system: HL-60(TB) leukemia
EKVX NSCLC = system: EKVX NSCLC

CN1CCN(CCOc2cc(OC3CCOCC3)c3c(Nc4c(Cl)ccc5c4OCO5)ncnc3c2)CC1
GI50 (SF-539 CNS): 6.5 µM and 6.41 µM | TGI (SF-539 CNS): 21.1 µM and > 10 µM | GI50 (LOX IMVI melanoma): 1.45 µM and 0.971 µM | TGI (LOX IMVI melanoma): 16.2 µM and > 10 µM | GI50 (UO-31 renal): 0.42 µM and 0.373 µM | TGI (UO-31 renal): 14.5 µM and > 10 µM | GI50 (NCI-H460 lung): 18.6 µM and > 10 µM | TGI (NCI-H460 lung): 65.6 µM and > 10 µM | GI50 (OVCAR-5 ovarian): 1.13 µM and 1.35 µM | TGI (OVCAR-5 ovarian): 23.9 µM and > 10 µM | GI50 (DU-145 prostate): 3.72 µM and 7.29 µM | TGI (DU-145 prostate): 39.7 µM and > 10 µM | GI50 (HOP-62 NSCLC): 5.48 µM and 8.53 µM | TGI (HOP-62 NSCLC): 26.7 µM and > 10 µM | GI50 (UACC-257 melanoma): 15.1 µM and > 10 µM | TGI (UACC-257 melanoma): 30.2 µM and > 10 µM | GI50 (PC-3 prostate): 19.3 µM and > 10 µM | TGI (PC-3 prostate): > 100 µM | GI50 (HS 578T breast): 0.732 µM and 1.7 µM | TGI (HS 578T breast): 11.2 µM and > 10 µM | GI50 (CAKI-1 renal): 0.571 µM and 0.644 µM | TGI (CAKI-1 renal): 10.5 µM and > 10 µM | GI50 (HCT-116 colon): 8.75 µM and 2.76 µM | TGI (HCT-116 colon): 29.2 µM and > 10 µM | GI50 (OVCAR-4 ovarian): 13.5 µM and > 10 µM | TGI (OVCAR-4 ovarian): 34.7 µM and > 10 µM | GI50 (HT29 colon): 0.634 µM and 1.26 µM | TGI (HT29 colon): 5.47 µM and > 10 µM | GI50 (SF-268 CNS): 4.72 µM and > 10 µM | TGI (SF-268 CNS): 33.8 µM and > 10 µM | GI50 (SR leukemia): 9.63 µM and 5.98 µM | TGI (SR leukemia): 37.4 µM and > 10 µM | GI50 (786-0 renal): 4.47 µM and > 10 µM | TGI (786-0 renal): 24.1 µM and > 10 µM | GI50 (SN12C renal): 0.736 µM and 3.31 µM | TGI (SN12C renal): 27.2 µM and > 10 µM | GI50 (KM12 colon): 1.32 µM and 2.23 µM | TGI (KM12 colon): 15.1 µM and > 10 µM | GI50 (MDA-MB-231 breast): 6.95 µM and 8.97 µM | TGI (MDA-MB-231 breast): 24.1 µM and > 10 µM | GI50 (A498 renal): 0.529 µM and 1.37 µM | TGI (A498 renal): 4.52 µM and > 10 µM | GI50 (SW-620 colon): 17.5 µM and > 10 µM | TGI (SW-620 colon): 33.6 µM and > 10 µM | GI50 (BT-549 breast): 15.6 µM and > 10 µM | TGI (BT-549 breast): 30.7 µM and > 10 µM | GI50 (CCRF-CEM leukemia): 21.5 µM and > 10 µM | TGI (CCRF-CEM leukemia): 76.3 µM and > 10 µM | GI50 (M14 melanoma): 15.4 µM and > 10 µM | TGI (M14 melanoma): 31.3 µM and > 10 µM | GI50 (HCT-15 colon): 4.18 µM and 3.26 µM | TGI (HCT-15 colon): 26.6 µM and > 10 µM | GI50 (COLO 205 colon): 9.81 µM and 7.76 µM | TGI (COLO 205 colon): 24 µM and > 10 µM | GI50 (NCI-H522 lung): 0.165 µM and 0.346 µM | TGI (NCI-H522 lung): 2.5 µM and > 10 µM | GI50 (A549 NSCLC): 5.27 µM and 3.26 µM | TGI (A549 NSCLC): 25.9 µM and > 10 µM | GI50 (RPMI-8226 leukemia): 19.4 µM and > 10 µM | TGI (RPMI-8226 leukemia): 63.4 µM and > 10 µM | GI50 (MALME-3M melanoma): 14.1 µM and > 10 µM | TGI (MALME-3M melanoma): 30.1 µM and > 10 µM | GI50 (UACC-62 melanoma): 14.8 µM | TGI (UACC-62 melanoma): 28.6 µM | GI50 (NCI/ADR-RES ovarian): 10.6 µM and 8.91 µM | TGI (NCI/ADR-RES ovarian): 56.8 µM and > 10 µM | GI50 (SK-OV-3 ovarian): 0.441 µM and 0.345 µM | TGI (SK-OV-3 ovarian): 13.2 µM and > 10 µM | GI50 (NCI-H226 lung): 15.7 µM and > 10 µM | TGI (NCI-H226 lung): 38.9 µM and > 10 µM | GI50 (SK-MEL-2 melanoma): 16.6 µM and > 10 µM | TGI (SK-MEL-2 melanoma): 31.8 µM and > 10 µM | GI50 (MOLT-4 leukemia): 14.6 µM and > 10 µM | TGI (MOLT-4 leukemia): 49.2 µM and > 10 µM | GI50 (SNB-19 CNS): 12.1 µM and > 10 µM | TGI (SNB-19 CNS): > 100 µM | GI50 (OVCAR-3 ovarian): 3.7 µM and 5.55 µM | TGI (OVCAR-3 ovarian): 22.2 µM and > 10 µM | GI50 (RXF 393 renal): 0.788 µM and 1.02 µM | TGI (RXF 393 renal): 12.6 µM and > 10 µM | GI50 (SK-MEL-28 melanoma): 13.6 µM and > 10 µM | TGI (SK-MEL-28 melanoma): 27.2 µM and > 10 µM | GI50 (NCI-H23 lung): 12.2 µM and > 10 µM | TGI (NCI-H23 lung): 57.1 µM and > 10 µM | GI50 (U251 CNS): 11.2 µM and > 10 µM | TGI (U251 CNS): 31.1 µM and > 10 µM | GI50 (HCC-2998 colon): 17.7 µM and > 10 µM | TGI (HCC-2998 colon): 37.7 µM and > 10 µM | GI50 (ACHN renal): 0.348 µM and 0.395 µM | TGI (ACHN renal): 14 µM and > 10 µM | GI50 (MCF7 breast): 4.72 µM and > 10 µM | TGI (MCF7 breast): 27.4 µM and > 10 µM | GI50 (MDA-MB-435): 13.5 µM and > 10 µM | TGI (MDA-MB-435): 27.2 µM and > 10 µM | GI50 (HOP-92 NSCLC): 0.679 µM and 0.139 µM | TGI (HOP-92 NSCLC): 11.4 µM and 5.64 µM | GI50 (OVCAR-8 ovarian): 8.55 µM and 8.64 µM | TGI (OVCAR-8 ovarian): 34 µM and > 10 µM | GI50 (SK-MEL-5 melanoma): 11.4 µM and > 10 µM | TGI (SK-MEL-5 melanoma): 23.6 µM and > 10 µM | GI50 (T-47D breast): 1.23 µM and 0.286 µM | TGI (T-47D breast): 22.3 µM and > 10 µM | GI50 (IGROV1 ovarian): 0.244 µM and 0.204 µM | TGI (IGROV1 ovarian): 2.72 µM and 3.05 µM | GI50 (K-562 leukemia): 0.382 µM and 0.47 µM | TGI (K-562 leukemia): 9.24 µM and > 10 µM | GI50 (TK-10 renal): 0.671 µM and 0.517 µM | TGI (TK-10 renal): 6.4 µM and > 10 µM | GI50 (SF-295 CNS): 5.83 µM and > 10 µM | TGI (SF-295 CNS): 25.3 µM and > 10 µM | GI50 (SNB-75 CNS): 0.206 µM and 0.209 µM | TGI (SNB-75 CNS): 3.47 µM and > 10 µM | GI50 (HL-60(TB) leukemia): 18.7 µM and > 10 µM | TGI (HL-60(TB) leukemia): 37.8 µM and > 10 µM | GI50 (EKVX NSCLC): 1.04 µM and 0.732 µM | TGI (EKVX NSCLC): 57.6 µM and > 10 µM
